According to US20230028880A1, “CD38-BINDING AGENTS AND USES THEREOF” (Biohaven Therapeutics Ltd., priority 2019, published 2023):
“And” between values parts separate entries of the source, which are not always exact repeats. Equal entries are not always repeated. Where two headings read alike, the source gives them in different places. One block for each molecule: values may come before it. Where no end group is shown, it is not given here. [ ]: non-standard residue; d: D form. Bip = N[C@@H](Cc1ccc(-c2ccccc2)cc1)C(=O)O; NMeF = CN[C@@H](Cc1ccccc1)C(=O)O; Ahp(2) = CCCCC[C@H](N)C(=O)O

Legend:
Daudi cells [1] = test: KILR ADCC killing assay: KILR-transfected Daudi cells with purified NK cells (% dead cells); assay type: cell-based; conditions: for % dead cells, KILR ADCC killing assay: KILR Daudi cells with purified NK cells, duplicate columns
Description: In some embodiments, CD38-ABT ARMs bind to target cells and antibodies, e.g., human antibodies. In some embodiments, such ternary structures present antibodies to effector cells such as NK cell and bind to, e.g., CD16a receptors. […] Daudi cells were transfected with KILR reporter construct (DiscoverX #97-0002). An attenuated lentivirus was designed to deliver a Moloney Murine Leukemia Virus (MMLV) engineered to drive expression of a housekeeping gene tagged with Enhanced ProLabel (ePL) a beta-Galactosidase (beta-gal) reporter fragment. This construct was designed to remain inside cells. Death leads to the release of the KILR reporter protein into the medium. Detection reagent (DiscoverX #97-0001L) contained the complementing beta-gal reporter fragment enzyme acceptor (EA). The two components combined to generate a chemiluminescent signal.

Daudi cells [2] = test: Ternary binding assay: recruitment of PE-labeled human IgG1k to Daudi cells (flow cytometry, MFI); assay type: cell-based; conditions: for MFI, recruitment of PE-labeled human IgG1k to Daudi cells: duplicate columns
Experimental: Various technologies can be utilized to assess and/or characterize recruitment of antibodies to target cells, e.g., cancer cells. One such assay is a ternary binding assay. An exemplary protocol is described herein. Compounds were diluted in DMSO (MP 191418) to 1000× the starting concentration used in the assay into a 96 well polypropylene plate (Corning 3357). They were then serially diluted in ½ log increments to generate 8-12 concentrations in DMSO (assay dependent). These DMSO stocks were then step diluted 1/100 into PBS (VWR Cat. #20012043). Step diluted compound range was then added into the polypropylene assay plate 1/10 the volume of the assay volume. Daudi (ATCC CCL-213), a non-adherent cell line, were counted and centrifuged and resuspended at a concentration of 100,000 cells per 90 ul in Flow buffer: 1% BSA (American Bio AB01088-00100); 0.5 mM EDTA (VWR 45001-122); PBS (VWR Cat. #20012043) with 11.1 ug/mL human IgG1k Phycoerythrin labeled (SouthernBiotech #0151K-09 PE). The cells were then added into the polypropylene plate with the step diluted compounds and incubated at 37° C. for 30 min. At the end of the incubation, the cells were centrifuged and washed 2× with How buffer containing 0.5% Tween 20 (BP337-500). Samples were analyzed on a BD FacsCelesta. Mean fluorescence was analyzed using Graphpad Prism and curves were fit using log(inhibitor) vs. response—Variable slope (four parameters).

[3] = system: Effector cells (ADCC reporter cells) with Daudi cells; test: ADCC reporter assay: Daudi cells, IVIG and ADCC reporter effector cells (luciferase, RLU); assay type: cell-based; conditions: IVIG; for Luminescence, ADCC reporter assay: 18 h, duplicate columns
Experimental: Daudi (ATCC CCL-213) cells were resuspended in Opti-MEM (Thermo Fisher Scientific #31985070), counted (Life Technologies Countless II cell counter) and plated (5,000 cells in 25 uL/well; Corning plates: 3917). Compounds w diluted in DMSO (MP 191418) to 1000× the starting concentration used in the assay into a 96 well polypropylene plate (Corning 3357). They were then serially diluted in ½ log increments to generate 8 concentrations in DMSO (assay dependent). These DMSO stocks were then step diluted 1/250 into Opti-MEM. Step diluted compound range was then added into the polypropylene assay plate 25 uL/well. The human antibody solution (Grifols IVIG Fleogogamma #61953-0005-2) was diluted to 40 ug/mL and added 25 uL/well. Effector cells (ADCC reporter cells—Promega kit: G7018) were added 37,500 in 25 uL/well. The assay was then incubated 18 h at 37° C. Following the induction period, the plate was equilibrated to 25° C. followed the addition of the luciferase substrate (75 uL/well, 1 vial in 10 mL of Bio-Glo assay buffer, Promega kit: G7018). The luminescence was measured (Biotek Synergy H1 microplate reader).

CD38 [4] = target: T1, CD38 (human, UniProt P28907 43-300, limits assumed); test: ELISA; larger values represent binding
T1 construct: also called cluster of differentiation 38; cyclic ADP ribose hydrolase

CD38 [5] = target: T1, CD38; test: ELISA; larger values represent binding; remark: listed apart in the source

Molecule: I-38: "A mixture of compound 6 ... compound 2 ... DIEA ... to get compound I-38 (Q1 ...) and compound I-38 (Q2 ...)" (ARXYHDGVLXXDCXXXKXDCAWHLGELVWCT; not fully specified; D-residues; cyclised or stapled)
EC50 (Daudi cells [1]; KILR ADCC killing assay, Daudi cells with purified NK cells): > 3000 nM | % dead cells, KILR ADCC killing assay (Daudi cells [1]; compound 1 nM): 10.4% and 10.9% | % dead cells, KILR ADCC killing assay (Daudi cells [1]; compound 3 nM): 10.2% and 10.7% | % dead cells, KILR ADCC killing assay (Daudi cells [1]; compound 30 nM): 10.6% and 11.6% | % dead cells, KILR ADCC killing assay (Daudi cells [1]; compound 100 nM): 10.9% | % dead cells, KILR ADCC killing assay (Daudi cells [1]; compound 300 nM): 10.9% and 11.1% | % dead cells, KILR ADCC killing assay (Daudi cells [1]; compound 1000 nM): 11.4% and 11.7% | % dead cells, KILR ADCC killing assay (Daudi cells [1]; compound 3000 nM): 10.3% and 10.8% | IC50 (Daudi cells [2]; ternary binding assay, Daudi cells, human IgG1k PE): > 3000 nM

Molecule: CCCCC[C@@H]1NC(=O)[C@H](CCCNC(=N)N)NC(=O)[C@H](C)NC(=O)CSC[C@@H](C(=O)NCCOCCOCCC(=O)NCCOCCOCCC(=O)N[C@@H](CC(=O)O)C(=O)N[C@H]2CSSC[C@@H](C(=O)N[C@H](C(=O)O)[C@@H](C)O)NC(=O)[C@H](Cc3c[nH]c4ccccc34)NC(=O)[C@H](C(C)C)NC(=O)[C@H](CC(C)C)NC(=O)[C@H](CCC(=O)O)NC(=O)CNC(=O)[C@H](CC(C)C)NC(=O)[C@H](Cc3c[nH]cn3)NC(=O)[C@H](Cc3c[nH]c4ccccc34)NC(=O)[C@H](C)NC2=O)NC(=O)[C@H](CC(=O)O)NC(=O)[C@H](CCCCC)NC(=O)[C@H](Cc2ccc(-c3ccccc3)cc2)NC(=O)[C@H](CC(C)C)NC(=O)[C@H](C(C)C)NC(=O)CNC(=O)[C@H](CC(=O)O)NC(=O)[C@H](Cc2c[nH]cn2)NC(=O)[C@H](Cc2ccc(O)cc2)NC1=O [I-34]
% dead cells, KILR ADCC killing assay (Daudi cells [1]; compound 1 nM): 13.9% and 15.8% | % dead cells, KILR ADCC killing assay (Daudi cells [1]; compound 3 nM): 13.6% and 13.4% | % dead cells, KILR ADCC killing assay (Daudi cells [1]; compound 10 nM): 14.9% and 14.5% | % dead cells, KILR ADCC killing assay (Daudi cells [1]; compound 30 nM): 17.8% and 16.4% | % dead cells, KILR ADCC killing assay (Daudi cells [1]; compound 100 nM): 19.7% and 16.9% | % dead cells, KILR ADCC killing assay (Daudi cells [1]; compound 300 nM): 18.9% and 18.8% | % dead cells, KILR ADCC killing assay (Daudi cells [1]; compound 1000 nM): 15.3% and 15.9% | % dead cells, KILR ADCC killing assay (Daudi cells [1]; compound 3000 nM): 14.2% and 13.5% | EC50 ([3]; ADCC reporter assay): 6.7 nM | Luminescence, ADCC reporter assay ([3]; compound 1 nM): 4355 RLU and 4667 RLU | Luminescence, ADCC reporter assay ([3]; compound 3 nM): 5459 RLU and 5627 RLU | Luminescence, ADCC reporter assay ([3]; compound 10 nM): 13353 RLU and 13815 RLU | Luminescence, ADCC reporter assay ([3]; compound 30 nM): 16833 RLU and 17160 RLU | Luminescence, ADCC reporter assay ([3]; compound 100 nM): 19999 RLU and 21759 RLU | Luminescence, ADCC reporter assay ([3]; compound 300 nM): 19948 RLU and 20759 RLU | Luminescence, ADCC reporter assay ([3]; compound 1000 nM): 12953 RLU and 13376 RLU | Luminescence, ADCC reporter assay ([3]; compound 3000 nM): 8601 RLU and 9733 RLU | MFI, recruitment of PE-labeled human IgG1k to Daudi cells (Daudi cells [2]; compound 3 nM): 2094 and 1853 | MFI, recruitment of PE-labeled human IgG1k to Daudi cells (Daudi cells [2]; compound 10 nM): 11368 and 6266 | MFI, recruitment of PE-labeled human IgG1k to Daudi cells (Daudi cells [2]; compound 30 nM): 15113 and 15626 | MFI, recruitment of PE-labeled human IgG1k to Daudi cells (Daudi cells [2]; compound 100 nM): 30043 and 19748 | MFI, recruitment of PE-labeled human IgG1k to Daudi cells (Daudi cells [2]; compound 300 nM): 24939 and 24944 | MFI, recruitment of PE-labeled human IgG1k to Daudi cells (Daudi cells [2]; compound 1000 nM): 27313 and 25699 | MFI, recruitment of PE-labeled human IgG1k to Daudi cells (Daudi cells [2]; compound 3000 nM): 19464 and 23695

Binding Assay (ELISA signal) (CD38 [4]): 0.11
B1: A R A Y H D G V L Bph Ahp D C (peptide)
peptide: ARAYHDGVL[Bip][Ahp(2)]DC
modifications: not fully specified (N-terminus, bridges); printed as A R A Y H D G V L Bph Ahp D C
notes: Alanine variant at position 3

Binding Assay (ELISA signal) (CD38 [4]): 0.6
B2: A A Ahp Y H D G V L Bph Ahp D C (peptide)
peptide: AA[Ahp(2)]YHDGVL[Bip][Ahp(2)]DC
modifications: not fully specified (N-terminus, bridges); printed as A A Ahp Y H D G V L Bph Ahp D C

Binding Assay (ELISA signal) (CD38 [4]): 0.3
B3: A R Ahp Y H D G A L Bph Ahp D C (peptide)
peptide: AR[Ahp(2)]YHDGAL[Bip][Ahp(2)]DC
modifications: not fully specified (N-terminus, bridges); printed as A R Ahp Y H D G A L Bph Ahp D C
notes: Alanine variant at position 8

Binding Assay (ELISA signal) (CD38 [4]): 0.2
B4: A R Ahp Y H D G V L Bph A D C (peptide)
peptide: AR[Ahp(2)]YHDGVL[Bip]ADC
modifications: not fully specified (N-terminus, bridges); printed as A R Ahp Y H D G V L Bph A D C
notes: Alanine variant at position 11

Binding Assay (ELISA signal) (CD38 [5]): 0.37
B5: A L A MeF V L P Bph V W V C (peptide)
peptide: ALA[NMeF]VLP[Bip]VWVC
modifications: not fully specified (N-terminus, bridges); printed as A L A MeF V L P Bph V W V C
notes: Alanine variant at position 3

Binding Assay (ELISA signal) (CD38 [4]): 0.28
B6: A R Ahp Y A D G V L Bph Ahp D C (peptide)
peptide: AR[Ahp(2)]YADGVL[Bip][Ahp(2)]DC
modifications: not fully specified (N-terminus, bridges); printed as A R Ahp Y A D G V L Bph Ahp D C
notes: Alanine variant at position 5

Binding Assay (ELISA signal) (CD38 [4]): 0.11
B7: A R Ahp A H D G V L Bph Ahp D C (peptide)
peptide: AR[Ahp(2)]AHDGVL[Bip][Ahp(2)]DC
modifications: not fully specified (N-terminus, bridges); printed as A R Ahp A H D G V L Bph Ahp D C
notes: Alanine variant at position 4

Binding Assay (ELISA signal) (CD38 [4]): 1.49
B8: A R Ahp Y H D A V L Bph Ahp D C (peptide)
peptide: AR[Ahp(2)]YHDAVL[Bip][Ahp(2)]DC
modifications: not fully specified (N-terminus, bridges); printed as A R Ahp Y H D A V L Bph Ahp D C
notes: Alanine variant at position 7

Binding Assay (ELISA signal) (CD38 [4]): 0.93
B9: A R Ahp Y H A G V L Bph Ahp D C (peptide)
peptide: AR[Ahp(2)]YHAGVL[Bip][Ahp(2)]DC
modifications: not fully specified (N-terminus, bridges); printed as A R Ahp Y H A G V L Bph Ahp D C
notes: Alanine variant at position 6

Binding Assay (ELISA signal) (CD38 [4]): 1.79
B10: A R Ahp Y H D G V L Bph Ahp A C (peptide)
peptide: AR[Ahp(2)]YHDGVL[Bip][Ahp(2)]AC
modifications: not fully specified (N-terminus, bridges); printed as A R Ahp Y H D G V L Bph Ahp A C
notes: Alanine variant at position 12

Binding Assay (ELISA signal) (CD38 [5]): 0.84
B11: A A H MeF V L P Bph V W V C (peptide)
peptide: AAH[NMeF]VLP[Bip]VWVC
modifications: not fully specified (N-terminus, bridges); printed as A A H MeF V L P Bph V W V C

Binding Assay (ELISA signal) (CD38 [4]): 0.09
B12: A R Ahp Y H D G V L A Ahp D C (peptide)
peptide: AR[Ahp(2)]YHDGVLA[Ahp(2)]DC
modifications: not fully specified (N-terminus, bridges); printed as A R Ahp Y H D G V L A Ahp D C
notes: Alanine variant at position 10

Binding Assay (ELISA signal) (CD38 [4]): 0.08
B13: A R Ahp Y H D G V A Bph Ahp D C (peptide)
peptide: AR[Ahp(2)]YHDGVA[Bip][Ahp(2)]DC
modifications: not fully specified (N-terminus, bridges); printed as A R Ahp Y H D G V A Bph Ahp D C
notes: Alanine variant at position 9
